# Experimental data from patent US8236761B2, “C-Met receptor regulation by angiotensin IV (AT4) receptor ligands” (Washington State University Research Foundation, priority 2006, dated 2012).
# Non-standard residues stand in square brackets, D forms with d. No end group written: not given here. Nle = CCCC[C@H](N)C(=O)O
# Legend:
# MDCK cells = assay: HGF stimulated MDCK cell collagen I invasion (transwell chamber); format: cell-based, canine; settings: HGF 20 ng/ml, twelve hours
# Description: FIG. 9A: Modulation of HGF stimulated MDCK cell collagen I invasion in the Costar transwell chamber invasion assay. 50 μl of collagen I was added to the top chamber of the transwell chamber (BD Biosciences) and gelled by adjusting it to a physiological pH with a 1:1:1 mixture of 10× Modified Eagle's Medium, 1 M sodium bicarbonate, and 0.1 M sodium hydroxide for 30 minutes at 37° C. 50,000 MDCK cells in 1% FBS DMEM were seeded into the inside of the top chamber over the gelled collagen I solution and allowed to attach for two hours at 37° C. After the cells had attached to the collagen 1, the indicated concentrations of Norleual were added to the top chamber. […] The cells that had invaded the collagen and migrated to the underside of the membrane were counted in five random fields at 40× on a light microscope. The effect of treatment was determined using the one-way ANOVA with tukey's post-hoc analysis (Prism statistical analysis software). * indicates p<0.01 vs. HGF alone treatment. […] The cells that had invaded the collagen and migrated to the underside of the membrane were counted in five random fields at 40× on a light microscope. The effect of treatment was determined using the one-way ANOVA with tukey's post-hoc analysis (Prism statistical analysis software). * indicates p<0.05 vs. HGF treatment. […]
# [1] = system: urokinase plasminogen activator (uPA); assay: c-Met/HGF urokinase plasminogen activator (uPA) induction in MDCK cells; format: cell-based, canine; settings: HGF 10 ng/ml, Norleual 10^−10 M and 10^−12 M, 48 hours
# Description: Thereafter, 10 ng/ml of HGF alone and with the indicated concentrations of Norleual in a 1% FBS DMEM were added to the cells. The cells were cultured under these conditions for four days. On the fourth day, the treatment media was aspirated and replaced with 5 mg/ml of MTT reagent in 0.1 M glycine buffer (Invitrogen). The MTT reagent was incubated with the cells for four hours at 37° C. before adding DMSO to solubilize the cells and record the MTT absorbance on a plate reader. The controls were treated as background and subtracted from all of the treatments to determine the increase in proliferation due solely to HGF treatment. Differences between the treatments were determined using one-way ANOVA with Bonferroni's post-hoc analysis (Prism statistical analysis software). * indicate p<0.05 vs. HGF treatment. N=6, mean+/−SEM. […] Madin-Darby Canine Kidney (MDCK) cells were plated in the wells of a 96 well plate in 100 μl of complete Dulbecco's Modified Eagle's Medium (DMEM). The cells were serum starved for 24 hours to induce quiescence. […] Absorbance of the cleaved substrate was quantitated on a Biotek Synergy HT 2 plate reader according to the manufacturer's instructions. […] The data was analyzed with Prism® (GraphPad, San Diego, Calif.) statistical analysis software. * indicates p<0.01 vs. HGF treatment by Tukey's post-hoc analysis. […]
# [2] = system: aortic ring angiogenic sprouts; assay: Ex vivo mouse aortic ring angiogenesis assay; settings: 100 pM Norleual, four days, EGM-2
# Description: FIG. 16 depicts inhibition of angiogenesis by Norleual (Compound 2, SEQ ID NO:43) in the mouse aortic ring assay. Rings were incubated in EGM-2 media (Cambrex) with (n=8) or without (n=6) 100 pM Norleual for four days. Digital photos of the rings were taken on day four. FIG. 16A: Quantification of aortic ring angiogenesis. Areas covered by angiogenic sprouts were quantified from day four ring photos, control (−) and Norelual treated (+) (p-value=0.012* and error bars indicate ±SEM). FIG. 16B: HUVECs were treated for 5 minutes with HGF and/or Norleual at indicated concentrations. Lysates were IP with anti-c-Met and IB with anti-c-Met or Gab1.
# Aortic ring assay. 48-well plates were coated with Growth Factor Reduced Matrigel (BD Biosciences, San Jose, Calif., USA, thick gel method). Under microscopic dissection, the thoracic aorta of a 6 week-old C57 mouse was cut into 0.5 mm sections, washed in PBS, and placed in the Matrigel-coated wells. […] Photos were taken and angiogenic area was measured using Image J (Image Processing and Data Analysis in Java, available from NIH, Bethesda, Md.). […]
# See Example 1 for Materials and Methods. Angiogenesis was evaluated with the ex vivo mouse aortic ring assay in the presence and absence of Norleual. […]
substance,measurement,setting,value
Nle-Tyr-Leu-ψ-His-Pro-Phe ([Nle]YLHPF; also: reduced peptide bond psi(CH2NH2) between Leu and His) [Norleual],c-Met mediated collagen I invasion by MDCK cells,MDCK cells,inhibition
same,c-Met mediated collagen I invasion by MDCK cells,MDCK cells; listed as Compound 2,inhibited
same,c-Met/HGF uPA induction,[1],attenuation
same,Angiogenic growth of aortic rings,[2],significantly attenuated
